# According to ChEMBL document CHEMBL1142772, “Discovery and SAR of biaryl piperidine MCH1 receptor antagonists through solid-phase encoded combinatorial synthesis” (Bioorg Med Chem Lett, 2005):
# Experiment: Area under curve (time =0-6 hours)
# Format: ADME
# Parameters: time < 6 hr
# Conditions: rat
smiles,measurement,value
CN1CCC(CNC(=O)Nc2cc(Cl)cc(Cl)c2)(c2ccc(-c3cccnc3)cc2)CC1,AUC,1.4 µM
